Measurements published in patent EP1054888B1 (priority 1998, dated 1999).
Converted amounts (≈) assume the structure as drawn.

Assays:
Experiment in all cases: microbe, parasite or virus in culture
Type in all cases: cell-based
[1] = test system: Alternaria solani; conditions: read-out: MIC (Minimum Inhibitory Concentration) ALTESO
[2] = test system: Botrytis cinerea; conditions: read-out: MIC (Minimum Inhibitory Concentration) BOTRCI
[3] = test system: Leptosphaeria nodorum; conditions: Parastagonospora nodorum, read-out: MIC (Minimum Inhibitory Concentration) LEPTNO
[4] = test system: Phytophthora infestans; conditions: read-out: MIC (Minimum Inhibitory Concentration) PHYTIN
[5] = test system: Magnaporthe grisea f. sp. oryzae; conditions: Pyricularia oryzae, read-out: MIC (Minimum Inhibitory Concentration) PYRIOR, Table II; total inhibition of mycelial growth, V8 juice nutrient solution, 6-12 days at 18-25°C, visual inspection
[6] = test system: Pyrenophora teres; conditions: read-out: MIC (Minimum Inhibitory Concentration) PYRNTE
[7] = test system: Rhizoctonia solani; conditions: read-out: MIC (Minimum Inhibitory Concentration) RHIZSO
[8] = test system: Sclerotinia sclerotiorum; conditions: read-out: MIC (Minimum Inhibitory Concentration) SCLESC
[9] = test system: Mycosphaerella ligulicola; conditions: Stagonosporopsis ligulicola, read-out: MIC (Minimum Inhibitory Concentration) MYCOLG
[10] = test system: Monilina fructigena; conditions: read-out: MIC (Minimum Inhibitory Concentration) MONIFG

| SMILES | MIC [1] [µg/mL] | MIC [2] [µg/mL] | MIC [3] [µg/mL] | MIC [4] [µg/mL] | MIC [5] [µg/mL] | MIC [6] [µg/mL] | MIC [7] [µg/mL] | MIC [8] [µg/mL] | MIC [9] [µg/mL] | MIC [10] [µg/mL] |
| --- | --- | --- | --- | --- | --- | --- | --- | --- | --- | --- |
| CCCCc1c(-c2c(F)cccc2F)c(Cl)nc2ncnn12 [Example 22] | 0.1 (≈ 0.31 µM) | 1.56 (≈ 4.83 µM) | 1.56 (≈ 4.83 µM) | > 100 | 0.1 (≈ 0.31 µM) | 6.25 (≈ 19.4 µM) | 1.56 (≈ 4.83 µM) |  |  |  |
| Cc1ccccc1-c1c(-c2c(F)cccc2Cl)c(Cl)nc2ncnn12 [Example 35] | 3.13 (≈ 8.39 µM) | 3.13 (≈ 8.39 µM) | 6.25 (≈ 16.7 µM) | 25 (≈ 67 µM) | 0.78 (≈ 2.09 µM) | > 100 | 3.13 (≈ 8.39 µM) |  |  |  |
| Fc1cccc(Cl)c1-c1c(Cl)nc2ncnn2c1C1CCCC1 [Example 29] | 0.78 (≈ 2.22 µM) | 1.56 (≈ 4.44 µM) | 0.39 (≈ 1.11 µM) | > 100 | < 0.05 | 0.78 (≈ 2.22 µM) | 0.78 (≈ 2.22 µM) |  |  |  |
| Fc1cccc(Cl)c1-c1c(Cl)nc2ncnn2c1C1CCCCC1 [Example 30] | < 0.05 | < 0.05 | 25 (≈ 68.4 µM) | > 100 | < 0.05 | 0.2 (≈ 0.548 µM) | > 100 |  |  |  |
| Fc1c(F)c(F)c(-c2c(Cl)nc3ncnn3c2C2CCCCC2)c(F)c1F [Example 101, 5-chloro-7-cyclohexyl-6-(pentafluorophenyl)-1,2,4-triazolo[1,5a]pyrimidine] | 0.2 (≈ 0.497 µM) | 0.78 (≈ 1.94 µM) | 0.2 (≈ 0.497 µM) | > 100 | 0.2 (≈ 0.497 µM) | 3.13 (≈ 7.77 µM) | > 100 |  |  |  |
| Fc1ccccc1-c1c(Cl)nc2ncnn2c1C1CCCCC1 [Example 42] | 0.39 (≈ 1.18 µM) | 1.56 (≈ 4.72 µM) | 0.39 (≈ 1.18 µM) | > 100 | 0.39 (≈ 1.18 µM) | 3.13 (≈ 9.46 µM) | > 100 |  |  |  |
| CCCCc1c(-c2ccccc2F)c(Cl)nc2ncnn12 [Example 21] | 0.1 (≈ 0.328 µM) | 1.56 (≈ 5.12 µM) | 3.13 (≈ 10.3 µM) | 100 (≈ 328 µM) | < 0.05 | 0.78 (≈ 2.56 µM) | 3.13 (≈ 10.3 µM) |  |  |  |
| Cc1cccc(C)c1-c1c(-c2c(F)cccc2Cl)c(Cl)nc2ncnn12 [Example 33] | > 100 | > 100 | > 100 | 6.25 (≈ 16.1 µM) | 12.5 (≈ 32.3 µM) | > 100 | > 100 |  |  |  |
| O=C1CCCC(=O)C1c1c(-c2c(F)cccc2Cl)c(Cl)nc2ncnn12 [Example 36] | > 100 | > 100 | > 100 | 12.5 (≈ 31.8 µM) | > 100 | > 100 | > 100 |  |  |  |
| CCCCc1c(-c2ccccc2Cl)c(Cl)nc2ncnn12 [Example 20] | 0.2 (≈ 0.623 µM) | 1.56 (≈ 4.86 µM) | 3.13 (≈ 9.74 µM) | > 100 | < 0.05 | 3.13 (≈ 9.74 µM) | 3.13 (≈ 9.74 µM) |  |  |  |
| COc1nc2ncnn2c(C2CCCCC2)c1-c1c(F)cc(F)cc1F [Example 49] | 0.2 (≈ 0.552 µM) |  | > 100 | > 100 | 0.39 (≈ 1.08 µM) | 1.56 (≈ 4.31 µM) | > 100 |  |  |  |
| COc1nc2ncnn2c(C2CCCCC2)c1-c1c(F)cccc1Cl [Example 38] | 100 (≈ 277 µM) | > 100 | > 100 | > 100 | 0.78 (≈ 2.16 µM) | > 100 | > 100 |  |  |  |
| Cc1cccc(-c2c(-c3c(F)cccc3Cl)c(Cl)nc3ncnn23)c1 [Example 34] | 1.56 (≈ 4.18 µM) | 6.25 (≈ 16.7 µM) | 25 (≈ 67 µM) | 50 (≈ 134 µM) | 0.78 (≈ 2.09 µM) | > 100 | > 100 |  |  |  |
| [N-]=[N+]=Nc1nc2ncnn2c(C2CCCCC2)c1-c1c(F)cccc1Cl [Example 45] | 100 (≈ 269 µM) | > 100 | > 100 | > 100 | 12.5 (≈ 33.6 µM) | > 100 | > 100 |  |  |  |
| CCc1c(-c2c(F)cccc2Cl)c(Cl)nc2ncnn12 [Example 24] | 12.5 (≈ 40.2 µM) | 6.25 (≈ 20.1 µM) | 3.13 (≈ 10.1 µM) | > 100 | < 0.05 | > 100 | 6.25 (≈ 20.1 µM) |  |  |  |
| CCCc1c(-c2c(F)cccc2Cl)c(Cl)nc2ncnn12 [Example 25] | 1.56 (≈ 4.8 µM) | 0.78 (≈ 2.4 µM) | > 100 | 12.5 (≈ 38.4 µM) | 0.1 (≈ 0.308 µM) | 3.13 (≈ 9.63 µM) | 1.56 (≈ 4.8 µM) |  |  |  |
| CCCCc1c(-c2c(F)cccc2Cl)c(Cl)nc2ncnn12 [Example 17] |  | 0.2 (≈ 0.59 µM) | 0.78 (≈ 2.3 µM) |  |  |  |  | 0.78 (≈ 2.3 µM) | 0.78 (≈ 2.3 µM) | 3.13 (≈ 9.23 µM) |
| CCCCCCc1c(-c2c(F)cccc2Cl)c(Cl)nc2ncnn12 [Example 1, 5-chloro-7-n-hexyl-6-(2-chloro-6-fluorophenyl)-1,2,4-triazolo[1,5a]pyrimidine] |  |  | 12.5 (≈ 34 µM) | 100 (≈ 272 µM) | 1.56 (≈ 4.25 µM) | 3.13 (≈ 8.52 µM) |  |  |  |  |
